Read-outs that look alike come from different tables or passages of the source.
Key:
Assay in all cases: biochemical
Parameters in all cases: DiscoveRx KINOMEscan active site-directed competition binding; percent of control kinase bound to immobilised ligand
ERK4 = biological target: T1, ERK4 (Homo sapiens, UniProt P31152)
T1 construct: gene MAPK4

PIP5K2C = biological target: T2, PIP5K2C (Homo sapiens, UniProt Q8TBX8)
T2 construct: gene PIP4K2C
T2 sequence (Q8TBX8 1-421): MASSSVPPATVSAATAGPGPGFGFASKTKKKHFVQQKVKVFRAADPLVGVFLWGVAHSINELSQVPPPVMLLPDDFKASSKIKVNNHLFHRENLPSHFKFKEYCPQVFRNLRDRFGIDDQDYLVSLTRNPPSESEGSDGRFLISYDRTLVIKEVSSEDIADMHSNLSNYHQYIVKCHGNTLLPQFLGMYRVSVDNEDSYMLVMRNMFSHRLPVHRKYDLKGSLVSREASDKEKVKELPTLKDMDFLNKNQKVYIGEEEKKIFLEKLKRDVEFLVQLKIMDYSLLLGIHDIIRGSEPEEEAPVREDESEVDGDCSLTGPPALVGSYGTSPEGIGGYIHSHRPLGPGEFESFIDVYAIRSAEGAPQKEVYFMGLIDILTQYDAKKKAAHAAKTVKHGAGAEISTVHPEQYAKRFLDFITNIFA

FLT3-autoinhibited = biological target: T3, FLT3-autoinhibited (Homo sapiens, UniProt P36888)
T3 sequence (P36888 1-993): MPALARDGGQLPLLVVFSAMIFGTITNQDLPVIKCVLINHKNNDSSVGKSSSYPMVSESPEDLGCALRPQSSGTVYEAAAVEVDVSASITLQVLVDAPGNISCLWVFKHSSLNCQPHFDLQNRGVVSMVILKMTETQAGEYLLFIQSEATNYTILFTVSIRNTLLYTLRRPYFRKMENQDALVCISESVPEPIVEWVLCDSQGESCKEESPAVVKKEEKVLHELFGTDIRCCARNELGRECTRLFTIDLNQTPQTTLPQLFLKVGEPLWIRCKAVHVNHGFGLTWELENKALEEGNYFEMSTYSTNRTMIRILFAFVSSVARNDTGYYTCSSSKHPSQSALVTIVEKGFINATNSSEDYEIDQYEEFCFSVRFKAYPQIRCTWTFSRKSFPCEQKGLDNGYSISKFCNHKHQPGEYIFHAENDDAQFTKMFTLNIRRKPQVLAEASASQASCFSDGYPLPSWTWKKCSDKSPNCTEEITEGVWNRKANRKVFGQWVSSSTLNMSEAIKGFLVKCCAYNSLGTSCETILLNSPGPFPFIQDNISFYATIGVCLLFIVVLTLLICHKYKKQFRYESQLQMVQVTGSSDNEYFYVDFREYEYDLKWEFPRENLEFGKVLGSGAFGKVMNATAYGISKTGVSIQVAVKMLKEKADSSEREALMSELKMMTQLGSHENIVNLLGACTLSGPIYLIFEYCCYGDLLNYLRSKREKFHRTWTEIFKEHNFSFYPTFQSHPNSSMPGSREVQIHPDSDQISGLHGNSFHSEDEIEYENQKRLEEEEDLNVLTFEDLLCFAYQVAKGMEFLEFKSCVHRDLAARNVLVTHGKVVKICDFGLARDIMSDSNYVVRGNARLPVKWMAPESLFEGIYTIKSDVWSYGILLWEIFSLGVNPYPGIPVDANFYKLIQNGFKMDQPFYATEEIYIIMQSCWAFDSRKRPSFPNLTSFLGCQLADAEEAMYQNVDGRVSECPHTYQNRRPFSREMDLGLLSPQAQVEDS

SGK = biological target: T4, SGK (Homo sapiens, UniProt O00141)
T4 construct: gene SGK1
T4 sequence (O00141 1-431): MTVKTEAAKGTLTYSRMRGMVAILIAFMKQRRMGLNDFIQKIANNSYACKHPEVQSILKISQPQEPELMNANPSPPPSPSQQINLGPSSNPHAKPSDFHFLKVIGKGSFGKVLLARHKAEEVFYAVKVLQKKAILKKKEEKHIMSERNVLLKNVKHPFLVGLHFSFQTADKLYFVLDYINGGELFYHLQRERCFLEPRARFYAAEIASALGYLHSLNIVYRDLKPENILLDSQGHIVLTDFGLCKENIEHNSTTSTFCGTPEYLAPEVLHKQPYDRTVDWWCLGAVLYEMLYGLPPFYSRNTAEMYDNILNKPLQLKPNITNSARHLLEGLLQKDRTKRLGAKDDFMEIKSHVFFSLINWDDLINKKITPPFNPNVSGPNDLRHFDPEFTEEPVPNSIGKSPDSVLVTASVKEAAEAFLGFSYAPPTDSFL

[1] = read-out: Niraparib (MK-4827) / %Ctrl @ 10000nM
[2] = read-out: Olaparib / %Ctrl @ 10000nM
[3] = read-out: Rucaparib / %Ctrl @ 10000nM, binding competition, % of control
[4] = read-out: Talazoparib (BMN 673) / %Ctrl @ 10000nM

T1 sequence (P31152 whole entry): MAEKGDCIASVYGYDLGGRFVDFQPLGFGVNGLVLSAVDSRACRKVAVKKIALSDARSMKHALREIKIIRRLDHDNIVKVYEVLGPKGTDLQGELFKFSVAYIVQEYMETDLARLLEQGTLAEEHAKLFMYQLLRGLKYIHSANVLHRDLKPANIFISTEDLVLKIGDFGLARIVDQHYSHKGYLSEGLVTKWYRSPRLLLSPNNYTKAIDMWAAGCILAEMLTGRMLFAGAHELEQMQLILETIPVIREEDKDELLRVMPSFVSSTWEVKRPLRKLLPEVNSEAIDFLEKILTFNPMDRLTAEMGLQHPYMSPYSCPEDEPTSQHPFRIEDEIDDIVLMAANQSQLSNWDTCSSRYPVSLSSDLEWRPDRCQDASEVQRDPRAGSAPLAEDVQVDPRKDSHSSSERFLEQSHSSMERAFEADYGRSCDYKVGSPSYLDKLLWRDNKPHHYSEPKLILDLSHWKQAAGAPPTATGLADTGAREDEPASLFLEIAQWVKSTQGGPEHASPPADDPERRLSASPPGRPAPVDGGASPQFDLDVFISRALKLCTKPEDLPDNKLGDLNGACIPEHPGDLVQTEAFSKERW

Structure (SMILES): NC(=O)c1cccc2cn(-c3ccc([C@@H]4CCCNC4)cc3)nc12 [Niraparib]
- percent of control binding at 10 µM (ERK4; [1]): 98%
- percent of control binding at 10 µM (PIP5K2C; [1]): 78%
- percent of control binding at 10 µM (FLT3-autoinhibited; [1]): 84%
- percent of control binding at 10 µM (SGK; [1]): 89%

Structure (SMILES): O=C(c1cc(Cc2n[nH]c(=O)c3ccccc23)ccc1F)N1CCN(C(=O)C2CC2)CC1 [Olaparib]
- percent of control binding at 10 µM (ERK4; [2]): 100%
- percent of control binding at 10 µM (PIP5K2C; [2]): 98%
- percent of control binding at 10 µM (FLT3-autoinhibited; [2]): 87%
- percent of control binding at 10 µM (SGK; [2]): 97%

Structure (SMILES): CNCc1ccc(-c2[nH]c3cc(F)cc4c3c2CCNC4=O)cc1 [Rucaparib]
- percent of control binding at 10 µM (ERK4; [3]): 97%
- percent of control binding at 10 µM (PIP5K2C; [3]): 83%
- Rucaparib / %Ctrl @ 10000nM (FLT3-autoinhibited; binding competition, % of control): 93%
- percent of control binding at 10 µM (SGK; [3]): 61%

Structure (SMILES): Cn1ncnc1[C@H]1c2n[nH]c(=O)c3cc(F)cc(c23)N[C@@H]1c1ccc(F)cc1 [Talazoparib]
- percent of control binding at 10 µM (ERK4; [4]): 100%
- percent of control binding at 10 µM (PIP5K2C; [4]): 100%
- percent of control binding at 10 µM (FLT3-autoinhibited; [4]): 100%
- percent of control binding at 10 µM (SGK; [4]): 92%
